Source: patent US20210255193A1, “LYSINE REACTIVE PROBES AND USES THEREOF” (The Scripps Research Institute, priority 2017, published 2021)
Blank lines part the entries; values can stand above or below the compound they belong to.

Tests used:
Test in all cases: competitive isoTOP-ABPP
Format in all cases: binding
[1] = target: T1, LDHB L-lactate dehydrogenase B chain (Homo sapiens, UniProt P07195); conditions: for isoTOP-ABPP ratio (R) at liganded lysine P07195_K82 / isoTOP-ABPP ratio (R) at liganded lysine P07195_K244: sol, 231
T1 construct: isoTOP-ABPP experiments performed in cell lysates (in vitro); endogenous in cells; host or cells: MDA-MB-231 soluble lysate
T1 sequence (P07195 whole entry): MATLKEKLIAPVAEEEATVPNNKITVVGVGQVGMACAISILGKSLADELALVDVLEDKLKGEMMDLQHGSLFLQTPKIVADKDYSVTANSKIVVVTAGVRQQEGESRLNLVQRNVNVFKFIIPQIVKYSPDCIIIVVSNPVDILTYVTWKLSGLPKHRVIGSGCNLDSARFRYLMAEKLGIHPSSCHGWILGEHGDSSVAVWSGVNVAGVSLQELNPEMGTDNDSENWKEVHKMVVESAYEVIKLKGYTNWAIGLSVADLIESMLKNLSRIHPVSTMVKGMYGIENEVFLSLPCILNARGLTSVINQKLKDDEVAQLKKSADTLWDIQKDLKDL
Method in brief: (§1)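 Lysate + fragment (50 μM activated ester / 100 μM guanidinylating agent) or DMSO → 0.1 mM STP-alkyne, 1 h, RT → CuAAC to TEV tags (compound light, DMSO heavy) → LC-MS. R = heavy/light MS1 area; liganded lysine if R≥4.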

RTN4 Reticulon-4 = target: T2, RTN4 Reticulon-4 (Homo sapiens, UniProt Q9NQC3); conditions: for isoTOP-ABPP ratio (R) at liganded lysine Q9NQC3_K1104 / R value (DMSO/fragment) for probe 1 labeling / isoTOP-ABPP reactivity ratio at lysine Q9NQC3_K1104: 50 uM, in vitro; for isoTOP-ABPP ratio (R) at liganded lysine Q9NQC3_K1104: sol, 231; for R value (DMSO/fragment) for probe 1 labeling: Q9NQC3_K1104; for R value (DMSO/fragment) for probe 1 labeling / isoTOP-ABPP reactivity ratio at lysine Q9NQC3_K1104: 231 sol; for isoTOP-ABPP ratio, lysine Q9NQC3_K1104: 50 uM_231_sol_in vitro
T2 construct: endogenous in cells; host or cells: MDA-MB-231 lysate
T2 sequence (Q9NQC3 1-1192): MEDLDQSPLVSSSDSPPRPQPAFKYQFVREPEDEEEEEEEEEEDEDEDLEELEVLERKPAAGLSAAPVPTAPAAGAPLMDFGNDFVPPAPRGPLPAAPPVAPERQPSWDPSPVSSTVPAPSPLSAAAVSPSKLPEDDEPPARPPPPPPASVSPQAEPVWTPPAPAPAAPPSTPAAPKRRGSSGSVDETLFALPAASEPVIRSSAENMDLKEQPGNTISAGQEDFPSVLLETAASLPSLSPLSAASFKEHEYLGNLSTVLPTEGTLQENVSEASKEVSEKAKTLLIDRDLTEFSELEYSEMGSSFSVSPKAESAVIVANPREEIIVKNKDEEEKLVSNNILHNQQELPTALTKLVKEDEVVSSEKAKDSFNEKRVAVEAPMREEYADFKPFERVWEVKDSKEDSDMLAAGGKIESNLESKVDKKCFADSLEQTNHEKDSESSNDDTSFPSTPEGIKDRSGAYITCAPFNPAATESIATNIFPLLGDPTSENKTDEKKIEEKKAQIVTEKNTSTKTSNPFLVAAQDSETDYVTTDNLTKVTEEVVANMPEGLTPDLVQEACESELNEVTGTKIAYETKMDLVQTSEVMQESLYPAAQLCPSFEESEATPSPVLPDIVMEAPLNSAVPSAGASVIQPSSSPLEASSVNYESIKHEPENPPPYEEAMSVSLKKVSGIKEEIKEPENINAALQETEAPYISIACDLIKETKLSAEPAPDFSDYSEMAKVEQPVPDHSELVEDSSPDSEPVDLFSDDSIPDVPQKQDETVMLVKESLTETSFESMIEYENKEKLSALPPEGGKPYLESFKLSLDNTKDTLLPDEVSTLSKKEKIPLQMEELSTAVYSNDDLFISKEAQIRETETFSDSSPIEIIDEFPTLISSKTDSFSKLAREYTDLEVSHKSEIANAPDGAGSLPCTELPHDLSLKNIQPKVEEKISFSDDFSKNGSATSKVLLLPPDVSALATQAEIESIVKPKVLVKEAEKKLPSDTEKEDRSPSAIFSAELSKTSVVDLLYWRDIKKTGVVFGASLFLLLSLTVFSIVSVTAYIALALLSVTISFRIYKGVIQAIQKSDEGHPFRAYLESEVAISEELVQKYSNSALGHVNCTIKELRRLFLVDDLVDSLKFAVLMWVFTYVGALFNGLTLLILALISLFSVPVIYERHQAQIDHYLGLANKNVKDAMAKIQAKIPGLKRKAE
Method in brief: as §1

TTR Transthyretin = target: T3, TTR Transthyretin (Homo sapiens, UniProt P02766); conditions: for isoTOP-ABPP ratio (R) at liganded lysine P02766_K35 / R value (DMSO/fragment) for probe 1 labeling / isoTOP-ABPP reactivity ratio at lysine P02766_K35: 50 uM, in vitro; for isoTOP-ABPP ratio (R) at liganded lysine P02766_K35: sol, 231; for R value (DMSO/fragment) for probe 1 labeling: P02766_K35; for R value (DMSO/fragment) for probe 1 labeling / isoTOP-ABPP reactivity ratio at lysine P02766_K35: 231 sol; for isoTOP-ABPP ratio, lysine P02766_K35: 50 uM_231_sol_in vitro
T3 construct: isoTOP-ABPP experiments performed in cell lysates (in vitro); endogenous in cells; host or cells: MDA-MB-231 soluble lysate
Method in brief: as §1

SMILES: O=C(Oc1ccc([N+](=O)[O-])cc1[N+](=O)[O-])C(c1ccccc1)(c1ccccc1)c1ccccc1 [fragment 42, 2,4-Dinitrophenyl 2,2,2-triphenylacetate]
isoTOP-ABPP ratio (R) at liganded lysine P07195_K82 ([1]; 50 uM, in vitro): 20.0 | isoTOP-ABPP ratio (R) at liganded lysine Q9NQC3_K1104 (RTN4 Reticulon-4): 1.2 | isoTOP-ABPP ratio (R) at liganded lysine P02766_K35 (TTR Transthyretin): 1.0

R value (DMSO/fragment) for probe 1 labeling ([1]; P07195_K244, 50 uM, 231 sol, in vitro): 1.0 | R value (DMSO/fragment) for probe 1 labeling (RTN4 Reticulon-4): 2.5 | R value (DMSO/fragment) for probe 1 labeling (TTR Transthyretin): 2.6
SMILES: O=C(Oc1c(F)c(F)c(F)c(F)c1F)c1cc(C(F)(F)F)cc(C(F)(F)F)c1 [fragment 21, Pentafluorophenyl 3,5-bis(trifluoromethyl)benzoate]

SMILES: CC(C)(C)OC(=O)NCCCC(=O)Oc1ccc([N+](=O)[O-])cc1[N+](=O)[O-] [fragment 41, 2,4-Dinitrophenyl 4-((tert-butoxycarbonyl)amino)butanoate]
isoTOP-ABPP ratio (R) at liganded lysine P07195_K244 ([1]; 50 uM, in vitro): 20.0 | isoTOP-ABPP ratio (R) at liganded lysine Q9NQC3_K1104 (RTN4 Reticulon-4): 4.3 | isoTOP-ABPP ratio (R) at liganded lysine P02766_K35 (TTR Transthyretin): 3.4

isoTOP-ABPP ratio, lysine P07195_K244 ([1]; 50 uM_231_sol_in vitro): 1.0 | isoTOP-ABPP ratio, lysine Q9NQC3_K1104 (RTN4 Reticulon-4): 3.8 | isoTOP-ABPP ratio, lysine P02766_K35 (TTR Transthyretin): 1.6
SMILES: O=C(Oc1c(F)c(F)c(C(F)(F)F)c(F)c1F)c1cc(C(F)(F)F)cc(C(F)(F)F)c1 [fragment 47, 2,3,5,6-Tetrafluoro-4-(trifluoromethyl)phenyl 3,5-bis(trifluoromethyl)benzoate]

SMILES: O=C(Oc1ccc([N+](=O)[O-])cc1[N+](=O)[O-])C1CCN(C(=O)OCc2ccccc2)CC1 [fragment 34, 1-Benzyl 4-(2,4-dinitrophenyl) piperidine-1,4-dicarboxylate]
isoTOP-ABPP ratio (R) at liganded lysine P07195_K244 ([1]; 50 uM, in vitro): 1.0 | isoTOP-ABPP ratio (R) at liganded lysine P02766_K35 (TTR Transthyretin): 2.2

SMILES: O=C(CCc1cn(-c2ccccc2)nc1-c1ccccc1)Oc1ccc([N+](=O)[O-])cc1[N+](=O)[O-] [fragment 29, 2,4-Dinitrophenyl 3-(1,3-diphenyl-1H-pyrazol-4-yl)propanoate]
isoTOP-ABPP reactivity ratio at lysine Q9NQC3_K1104 (RTN4 Reticulon-4): 15.6 | isoTOP-ABPP reactivity ratio at lysine P02766_K35 (TTR Transthyretin): 1.6

isoTOP-ABPP reactivity ratio at lysine P07195_K82 ([1]; 50 uM, 231 sol, in vitro): 0.7 | isoTOP-ABPP reactivity ratio at lysine Q9NQC3_K1104 (RTN4 Reticulon-4): 5.3
SMILES: O=C(CCc1coc2cc(F)ccc2c1=O)Oc1c(F)c(F)c(F)c(F)c1F [fragment 26, Pentafluorophenyl 3-(7-fluoro-4-oxo-4H-chromen-3-yl)propanoate]

isoTOP-ABPP ratio, lysine Q9NQC3_K1104 (RTN4 Reticulon-4): 0.7
SMILES: NC(=O)c1cc(C(F)(F)F)cc(C(F)(F)F)c1 [fragment 51, reference compound]

SMILES: Cn1cc(CC(=O)Oc2ccc([N+](=O)[O-])cc2[N+](=O)[O-])c2ccccc21 [fragment 32, 2,4-Dinitrophenyl 2-(1-methyl-1H-indol-3-yl)acetate]
isoTOP-ABPP reactivity ratio at lysine P07195_K82 ([1]; 50 uM, 231 sol, in vitro): 0.8 | isoTOP-ABPP reactivity ratio at lysine P07195_K244 ([1]; 50 uM, 231 sol, in vitro): 1.0 | isoTOP-ABPP reactivity ratio at lysine Q9NQC3_K1104 (RTN4 Reticulon-4): 20.0 | isoTOP-ABPP reactivity ratio at lysine P02766_K35 (TTR Transthyretin): 3.1

SMILES: O=C(CCc1ccc2c(c1)OCO2)Oc1ccc([N+](=O)[O-])cc1[N+](=O)[O-] [fragment 45, 2,4-Dinitrophenyl 3-(benzo[d][1,3]dioxol-5-yl)propanoate]
isoTOP-ABPP ratio, lysine P02766_K35 (TTR Transthyretin): 2.5

SMILES: O=C(CCc1coc2cc(F)ccc2c1=O)Oc1ccc([N+](=O)[O-])cc1[N+](=O)[O-] [fragment 36, 2,4-Dinitrophenyl 3-(7-fluoro-4-oxo-4H-chromen-3-yl)propanoate]
isoTOP-ABPP ratio (R) at liganded lysine P07195_K82 ([1]; 50 uM, in vitro): 0.9 | isoTOP-ABPP ratio (R) at liganded lysine P07195_K244 ([1]; 50 uM, in vitro): 20.0 | isoTOP-ABPP ratio (R) at liganded lysine P02766_K35 (TTR Transthyretin): 2.4

SMILES: O=C(CC12CC3CC(CC(C3)C1)C2)Oc1ccc([N+](=O)[O-])cc1[N+](=O)[O-] [fragment 38, 2,4-Dinitrophenyl 2-(adamantan-1-yl)acetate]
isoTOP-ABPP ratio (R) at liganded lysine P07195_K82 ([1]; 50 uM, in vitro): 0.7 | isoTOP-ABPP ratio (R) at liganded lysine P02766_K35 (TTR Transthyretin): 1.2

R value (DMSO/fragment) for probe 1 labeling (RTN4 Reticulon-4): 3.3 | R value (DMSO/fragment) for probe 1 labeling (TTR Transthyretin): 1.0
SMILES: COc1cc(CCC(=O)Oc2c(F)c(F)c(F)c(F)c2F)cc(OC)c1OC [fragment 23, Pentafluorophenyl 3-(3,4,5-trimethoxyphenyl)propanoate]
